Earlier results, collected in paper PMC4559881 (Molecular Neurodegeneration, 2015).
Like-named read-outs stand apart in the source and are kept apart here.

Legend:
[1] = cited from earlier work
brain Aβ = system: brain Aβ; parameters: method as in PMID 22090477; conditions: PDAPP mice, doses ≥ 30 mg/kg p.o.; cited from earlier work
CSF Aβ [2] = system: CSF Aβ; parameters: method as in PMID 22090477; conditions: dogs, oral dose of 5 mg/kg; cited from earlier work
CSF Aβ [3] = system: CSF Aβ; parameters: method as in PMID 22090477; conditions: healthy volunteers, cited from earlier work
deposited Aβ = system: deposited Aβ; parameters: method as in PMID 25164658; conditions: APP London mice, 4 months of dosing, 30 mg/kg; cited from earlier work
[4] = human, in vivo; cited from earlier work

C[C@@]1(c2cc(-c3cncnc3)c(F)cc2F)CCSC(N)=N1 [LY2811376]
toxicity finding in rats [1]: neuronal lipofuscinosis and degeneration | reduction of brain Aβ (brain Aβ): > 60% | reduction of CSF Aβ (CSF Aβ [2]): approximately 70% | change of CSF Aβ (CSF Aβ [3]; oral dose 30 mg): -20% | change of CSF Aβ (CSF Aβ [3]; oral dose 90 mg): -54%

CC1(C#Cc2cnc3c(c2)[C@]2(COC(N)=N2)c2cc(-c4cccnc4F)ccc2O3)COC1 [AMG-8718]
toxicity finding in rats ([1]; high doses): retinal toxicity

C[C@]1(c2cc(NC(=O)c3ccc(C#N)cn3)ccc2F)N=C(N)OCC1(F)F [RO5508887]
reduction of total deposited Aβ40 (deposited Aβ): 28% | reduction of total deposited Aβ42 (deposited Aβ): 45%

NC1=N[C@@]2(c3cc(NC(=O)c4ccc(F)cn4)ccc3F)COC[C@H]2CS1 [LY2886721]
liver finding in AD patients [4]: elevation of liver enzymes
